Source: US20230399312A1, “SUBSTITUTED PYRIMIDINES AND METHODS OF USE” (THERAVANCE BIOPHARMA R&D IP, LLC, priority 2020, published 2023)
pKi: −log10 of the molar value.

How the values were obtained:
[1] = target: T1, recombinant human ALK5 (TGF-βR1) protein (Homo sapiens, UniProt P36897); test: Biochemical ALK5 (TGF-βR1) assay to measure pKi (LANCE Ultra ULight kinase assay); details: apparent pKi, converted from pIC50 by Cheng-Prusoff
T1 construct: purchased Life Technologies PR9075A
T1 sequence (P36897 34-503): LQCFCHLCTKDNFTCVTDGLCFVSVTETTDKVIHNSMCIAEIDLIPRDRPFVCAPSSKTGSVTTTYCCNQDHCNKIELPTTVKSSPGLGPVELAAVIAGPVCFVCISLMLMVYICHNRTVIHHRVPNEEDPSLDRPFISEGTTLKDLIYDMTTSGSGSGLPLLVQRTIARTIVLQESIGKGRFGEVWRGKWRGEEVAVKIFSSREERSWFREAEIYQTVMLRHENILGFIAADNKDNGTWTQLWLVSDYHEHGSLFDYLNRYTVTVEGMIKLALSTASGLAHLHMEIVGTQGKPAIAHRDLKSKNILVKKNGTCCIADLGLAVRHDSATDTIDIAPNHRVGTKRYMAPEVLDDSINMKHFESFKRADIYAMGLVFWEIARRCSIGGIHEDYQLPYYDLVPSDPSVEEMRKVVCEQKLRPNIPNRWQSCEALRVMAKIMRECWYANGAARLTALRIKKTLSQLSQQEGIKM
Summary of the method: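 Europium TR-FRET kinase assay: the enzyme is exposed to compound for 60 min at room temperature, and reaction with ATP runs 60 min at 37 °C. Percent inhibition relative to DMSO and SD-208 controls gives pIC50, which is converted to pKi.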

[2] = system: TGF-β-stimulated SMAD3 phosphorylation in BEAS-2B cells; test: Cellular ALK5 potency assay, inhibition of TGF-β stimulated pSMAD3 formation in BEAS-2B cells; assay type: cell-based; details: Homo sapiens, pSMAD3, TGF-β 10 ng/mL, read-out: BEAS2B pIC50 (converted)
Summary of the method: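 Human lung epithelial BEAS-2B cells were pre-treated with compound for 1 h at 37 °C, then stimulated with TGF-β (final 10 ng/mL) for 30 min before lysis. pSMAD3 was quantified by AlphaLISA and pIC50 derived from dose-dependent signal change versus TGF-β-stimulated untreated cells.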

pKi [1] | Structure (SMILES) | IC50 [2] [nM]
9.50 to 10.40 | Cc1cccc(-c2nccc(Nc3ccnc(Nc4cccc(CN5CCN(C)CC5)c4)n3)n2)n1 [Compound 521, N2-[3-[(4-methylpiperazin-1-yl)methyl]phenyl]-N4-[2-(6-methyl-2-pyridyl)pyrimidin-4-yl]pyrimidine-2,4-diamine] | 25.1 to 158
8.50 to 9.40 | Cc1cccc(-c2nccc(Nc3ccnc(Nc4ccc(OCCO)cc4)n3)n2)n1 [Compound 54, 2-[4-[[4-[[2-(6-methyl-2-pyridyl)pyrimidin-4-yl]amino]pyrimidin-2-yl]amino]phenoxy]ethanol] | 25.1 to 158
7.50 to 8.40 | Cc1cccc(-c2nccc(Nc3ccnc(Nc4ncc(C(=O)N5CCNCC5)s4)n3)n2)n1 [Compound 30, [2-[[4-[[2-(6-methyl-2-pyridyl)pyrimidin-4-yl]amino]pyrimidin-2-yl]amino]thiazol-5-yl]-piperazin-1-yl-methanone] | 200 to 1260
≥ 10.50 | CC(=O)N1CCN(c2ccc(Nc3nccc(Nc4ccnc(-c5cccc(C)n5)n4)n3)cc2)CC1 [Compound 261, 1-[4-[4-[[4-[[2-(6-methyl-2-pyridyl)pyrimidin-4-yl]amino]pyrimidin-2-yl]amino]phenyl]piperazin-1-yl]ethanone] | ≤ 20
8.50 to 9.40 | CNC1CCN(S(=O)(=O)c2cccc(Nc3nccc(Nc4ccnc(-c5cccc(C)n5)n4)n3)c2)CC1 [Compound 176, N2-[3-[[4-(methylamino)-1-piperidyl]sulfonyl]phenyl]-N4-[2-(6-methyl-2-pyridyl)pyrimidin-4-yl]pyrimidine-2,4-diamine] | 25.1 to 158
9.50 to 10.40 | Cc1cccc(-c2nccc(Nc3ccnc(Nc4csc(C(=O)O[C@@H]5CCN(C)C5)c4)n3)n2)n1 [Compound 504, [(3R)-1-methylpyrrolidin-3-yl] 4-[[4-[[2-(6-methyl-2-pyridyl)pyrimidin-4-yl]amino]pyrimidin-2-yl]amino]thiophene-2-carboxylate] | 25.1 to 158
7.50 to 8.40 | Cc1cccc(-c2nccc(Nc3ccnc(Nc4ccc(C(=O)O[C@@H]5CCNC5)cn4)n3)n2)n1 [Compound 574, [(3R)-pyrrolidin-3-yl] 6-[[4-[[2-(6-methyl-2-pyridyl)pyrimidin-4-yl]amino]pyrimidin-2-yl]amino]pyridine-3-carboxylate] | 200 to 1260
9.50 to 10.40 | Cc1cccc(-c2nccc(Nc3ccnc(Nc4ccc5c(c4)CCNCC5)n3)n2)n1 [Compound 160, N4-[2-(6-methyl-2-pyridyl)pyrimidin-4-yl]-N2-(2,3,4,5-tetrahydro-1H-3-benzazepin-7-yl)pyrimidine-2,4-diamine] | 25.1 to 158
8.50 to 9.40 | Cc1cccc(-c2nccc(Nc3ccnc(Nc4ccc(NCCN5CCOCC5)cc4)n3)n2)n1 [Compound 355, N4-[2-(6-methyl-2-pyridyl)pyrimidin-4-yl]-N2-[4-(2-morpholinoethylamino)phenyl] pyrimidine-2,4-diamine] | 25.1 to 158
9.50 to 10.40 | Cc1cccc(-c2nccc(Nc3ccnc(Nc4ccc(CN5CC(C)(N(C)C)C5)cc4)n3)n2)n1 [Compound 262, N2-[4-[[3-(dimethylamino)-3-methyl-azetidin-1-yl]methyl]phenyl]-N4-[2-(6-methyl-2-pyridyl)pyrimidin-4-yl]pyrimidine-2,4-diamine] | 25.1 to 158
9.50 to 10.40 | Cc1cccc(-c2nccc(Nc3ccnc(Nc4ccc(CN5CCN(CC(C)C)CC5)cc4)n3)n2)n1 [Compound 533, N2-[4-[(4-isobutylpiperazin-1-yl)methyl]phenyl]-N4-[2-(6-methyl-2-pyridyl)pyrimidin-4-yl]pyrimidine-2,4-diamine] | 25.1 to 158
8.50 to 9.40 | Cc1cccc(-c2nccc(Nc3ccnc(Nc4csc(C(=O)O)c4)n3)n2)n1 [Compound 386, 4-[[4-[[2-(6-methyl-2-pyridyl)pyrimidin-4-yl]amino]pyrimidin-2-yl]amino]thiophene-2-carboxylic acid] | 1580 to 10000
9.50 to 10.40 | Cc1cccc(-c2nccc(Nc3ccnc(Nc4ccc(N5CCC(C(=O)O[C@H]6CCNC6)CC5)cc4)n3)n2)n1 [Compound 185, [(3S)-pyrrolidin-3-yl] 1-[4-[[4-[[2-(6-methyl-2-pyridyl)pyrimidin-4-yl]amino]pyrimidin-2-yl]amino]phenyl]piperidine-4-carboxylate] | 25.1 to 158
9.50 to 10.40 | Cc1cccc(-c2nccc(Nc3ccnc(Nc4cccc(NC(=O)C5CCNCC5)c4)n3)n2)n1 [Compound 288, N-[3-[[4-[[2-(6-methyl-2-pyridyl)pyrimidin-4-yl]amino]pyrimidin-2-yl]amino]phenyl]piperidine-4-carboxamide] | ≤ 20
9.50 to 10.40 | Cc1cccc(-c2nccc(Nc3ccnc(Nc4ccc(N5CCNCC5CC(=O)OC5CNC5)cc4)n3)n2)n1 (stereo not shown) [Compound 159, azetidin-3-yl 2-[1-[4-[[4-[[2-(6-methyl-2-pyridyl)pyrimidin-4-yl]amino]pyrimidin-2-yl]amino]phenyl]piperazin-2-yl]acetate] | 200 to 1260
9.50 to 10.40 | Cc1cccc(-c2nccc(Nc3ccnc(Nc4cccc(NC(=O)N5CCNCC5)c4)n3)n2)n1 [Compound 298, N-[3-[[4-[[2-(6-methyl-2-pyridyl)pyrimidin-4-yl]amino]pyrimidin-2-yl]amino]phenyl]piperazine-1-carboxamide] | 25.1 to 158
9.50 to 10.40 | Cc1cccc(-c2nccc(Nc3ccnc(Nc4ccc(CN5CCCC(C(=O)N6CCNCC6)C5)cc4)n3)n2)n1 (stereo not shown) [Compound 112, [1-[[4-[[4-[[2-(6-methyl-2-pyridyl)pyrimidin-4-yl]amino]pyrimidin-2-yl]amino]phenyl]methyl]-3-piperidyl]-piperazin-1-yl-methanone] | 25.1 to 158
9.50 to 10.40 | Cc1cccc(-c2nccc(Nc3ccnc(Nc4cnn(CC5CNC5)c4)n3)n2)n1 [Compound 181, N2-[1-(azetidin-3-ylmethyl)pyrazol-4-yl]-N4-[2-(6-methyl-2-pyridyl)pyrimidin-4-yl]pyrimidine-2,4-diamine] | 200 to 1260
9.50 to 10.40 | Cc1cccc(-c2nccc(Nc3ccnc(Nc4cccc(CN5C[C@@H](C)N[C@@H](C)C5)c4)n3)n2)n1 [Compound 519, N4-[2-(6-methyl-2-pyridyl)pyrimidin-4-yl]-N2-[3-[[rac-(3R,5S)-3,5-dimethylpiperazin-1-yl]methyl]phenyl]pyrimidine-2,4-diamine] | 25.1 to 158
9.50 to 10.40 | CNC(=O)[C@@H]1CN(Cc2ccc(Nc3nccc(Nc4ccnc(-c5cccc(C)n5)n4)n3)cc2)CCN1 [Compound 271, (2S)-N-methyl-4-[[4-[[4-[[2-(6-methyl-2-pyridyl)pyrimidin-4-yl]amino]pyrimidin-2-yl]amino]phenyl]methyl] piperazine-2-carboxamide] | 25.1 to 158
9.50 to 10.40 | Cc1cccc(-c2nccc(Nc3ccnc(Nc4ccnc(C(=O)O)c4)n3)n2)n1 [Compound 610, 4-[[4-[[2-(6-methyl-2-pyridyl)pyrimidin-4-yl]amino]pyrimidin-2-yl]amino]pyridine-2-carboxylic acid] | 1580 to 10000
9.50 to 10.40 | Cc1cccc(-c2nccc(Nc3ccnc(Nc4ccc(C)c(CN5CCNCC5)c4)n3)n2)n1 [Compound 247, N2-[4-methyl-3-(piperazin-1-ylmethyl)phenyl]-N4-[2-(6-methyl-2-pyridyl)pyrimidin-4-yl]pyrimidine-2,4-diamine] | 25.1 to 158
7.50 to 8.40 | Cc1cccc(-c2nccc(Nc3ccnc(Nc4ccc(C(=O)OCCN5CCNCC5)cn4)n3)n2)n1 [Compound 581, 2-piperazin-1-ylethyl 6-[[4-[[2-(6-methyl-2-pyridyl)pyrimidin-4-yl]amino]pyrimidin-2-yl]amino]pyridine-3-carboxylate] | 25.1 to 158
9.50 to 10.40 | CN1CCN(C2CCN(c3ccc(Nc4nccc(Nc5ccnc(-c6cc(Cl)c(F)cc6F)n5)n4)cc3)CC2)CC1 [Compound 326, N4-[2-(5-chloro-2,4-difluoro-phenyl)pyrimidin-4-yl]-N2-[4-[4-(4-methylpiperazin-1-yl)-1-piperidyl]phenyl]pyrimidine-2,4-diamine] | 200 to 1260
8.50 to 9.40 | Cc1cccc(-c2nccc(Nc3ccnc(Nc4ccc(NS(=O)(=O)c5c[nH]cn5)cc4)n3)n2)n1 [Compound 455, N-[4-[[4-[[2-(6-methyl-2-pyridyl)pyrimidin-4-yl]amino]pyrimidin-2-yl]amino]phenyl]-1H-imidazole-4-sulfonamide] | 200 to 1260
9.50 to 10.40 | CNCCNS(=O)(=O)c1cccc(Nc2nccc(Nc3ccnc(-c4cccc(C)n4)n3)n2)c1 [Compound 273, N-[2-(methylamino)ethyl]-3-[[4-[[2-(6-methyl-2-pyridyl)pyrimidin-4-yl]amino]pyrimidin-2-yl]amino]benzenesulfonamide] | 25.1 to 158
